In the supplement of paper PMC6723410:

Each compound was assayed on GUMC-403 (assay: viability at highest tested concentration (max response) relative to DMSO (% of DMSO control); higher = less cytotoxic). Settings: library / dose series: MIPE library, 11-point 1:3 dilution; top concentration 46.1 µM; 48 h.
Procedure, shortened: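 Conditionally reprogrammed GUMC-403 papilloma cells from a patient were plated at 700/well in 5 μL F + Y medium in 1536-well plates and left overnight at 37 °C. A pin tool then added 23 nL of library compounds as an 11-point 1:3 series, for 48 h. CellTiter-Glo luminescence was read on a ViewLux and scaled with vehicle wells set to 100% and empty wells to 0%. Each value gives viability at the highest tested concentration relative to vehicle control.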

SMILES | viability
O=C1NC(=O)/C(=C\c2ccc(-c3ccc(F)cc3)o2)S1 | 106
CCCCCC[C@H]1C(=O)O[C@H](C)[C@H](NC(=O)c2cccc(NC=O)c2O)C(=O)O[C@@H](C)[C@@H]1OC(=O)CC(C)C | 97.1
CN(C)NC(=O)CCC(=O)O | 101
C[C@H](NC(=O)c1sccc1OCc1ccc(Cl)cc1)c1ccccc1 | 95.3
CNCC(O)c1ccc(O)cc1 (stereo unspecified) | 132
O=C/1NC(=O)C(=C1C2=CN=C3C=CC=C[N]23)/C4=C[N]5CCN(CC6=C5C4=CC=C6)C(=O)N7CCOCC7 | 60.5
COc1cccc(N(C)C(=S)Oc2ccc3c(c2)CCCC3)n1 | 126
COC/1=C/C=C2\C(=C/C1=O)[C@H](CCC3=CC(=C(OC)C(=C23)OC)OC)NC(C)=O | 90.8
O=C1\C=C/C=C2/[C@H]3CNC[C@H](C3)CN12 | 136
CN(Cc1cc(Br)cc(Br)c1N)C1CCCCC1 | 122
CN1C(=O)C(=C\C2=C1N=C(NC3=CC=CC(=C3)C(O)=O)N=C2)/C4=C(Cl)C=CC=C4Cl | 148
COC1=CC=CC2=C1C(=NC(=N2)C3=CC=CS3)NN4C(=O)\C=C(C)/C4=O | 80
CC(=O)NC[C@H]1CN(c2ccc(N3CCOCC3)c(F)c2)C(=O)O1 | 120
CC(=O)N(C)c1cccc(-c2ccnc3c(C(=O)c4cccs4)cnn23)c1 | 106
CC1=C(/C=C/C(C)=C/C=C/C(C)=C/C=C/C=C(C)/C=C/C=C(C)/C=C/C2=C(C)CCCC2(C)C)C(C)(C)CCC1 | 113
Cc1cncc2cccc([S+](=O)([O-])N3CCCN(C(=O)CN)C[C@@H]3C)c12 | 138
C[C@]1(CO)CN(c2cc(C(=O)Nc3ccc4c(c3)-c3c(c(C(N)=O)nn3-c3ccc(F)cc3)CC4)c(Cl)cn2)C[C@@]1(C)CO | 64.7
COC1=C2OC(=O)\C=C/C2=CC3=C1OC=C3 | 102
CCCC[N+]1(C)[C@@H]2CC(OC(=O)[C@H](CO)c3ccccc3)C[C@H]1[C@@H]1O[C@@H]12 (stereo partly specified) | 114
CCN(CC)Cc1ccc2cc(COC(=O)Nc3ccc(C(=O)NO)cc3)ccc2c1 | 78.6
Oc1cc(O)cc(/C=C/c2ccc(O)c(O)c2)c1 | 91.7

SMILES | viability
COCCNCCCn1c(C(=O)CF)c(-c2ccc(C)cc2)c2c(N)ncnc21 | 90.7
CC(S)C(=O)NCC(=O)O (stereo unspecified) | 135
NCCCCNCCCN | 121
O=C(O)CCCc1ccc(N(CCCl)CCCl)cc1 | 111
CCCC1=N[N](C)C2=C1\N=C(/NC2=O)C3=CC(=CC=C3OCC)[S+]([O-])(=O)N4CCN(C)CC4 | 74.6
C[C@H]1COC2=C3N1\C=C(C(O)=O)/C(=O)C3=CC(=C2N4CCN(C)CC4)F | 105
COC1=C(CC=C(C)C)C2=C(\C=C/C(=O)O2)C=C1 | 92
O[C@@H]1[C@@H](O)[C@H](O[C@@H]([C@H]1O)C(O)=O)OC2=C(O)C(=C3C(=O)\C=C(/OC3=C2)C4=CC=CC=C4)O | 133
O=c1[nH]cnc2c1ncn2[C@H]1CC[C@@H](CO)O1 | 144
Clc1ccc2ncc(-c3cccc(NC4CNC4)n3)n2c1 | 124
Cc1cc(Nc2nc(N[C@@H](C)c3ncc(F)cn3)ncc2Cl)n[nH]1 | 163
CCC(=O)OC1CCC2C3CCC/4=C/C(=O)CC[C@@]4(C)C3CC[C@]12C (stereo partly specified) | 130
C=CC(=O)Nc1cc(NC(=O)c2ccc(C)c(NC(=O)c3ccno3)c2)cc(C(F)(F)F)c1 | 106
C[C@H](NC(=O)C(=O)Nc1ccccc1C(C)(C)C)C(=O)N[C@@H](CC(=O)O)C(=O)COc1c(F)c(F)cc(F)c1F | 68.7
CC(=O)NC(C)c1ccc(Oc2ccc(OC(C)C)cc2)cc1 (stereo unspecified) | 121
COc1ccc(C[C@@H](C)[C@@H](C)Cc2ccc(OC)c(OC)c2)cc1OC | 122
O=C(C[C@@H]1C/C=C\CCC(=O)O[C@H](c2ccccc2)CNC1=O)NCc1ccc(Cl)cc1 | 97.5
N[S+]([O-])(=O)C1=C(Cl)C=C2\N=C/N[S+]([O-])(=O)C2=C1 | 127
O=P1(N(CCCl)CCCl)NCCCO1 (stereo unspecified) | 116
COc1cc(N2CCC(N3CCN(C)CC3)CC2)ccc1Nc1ncc(Cl)c(Nc2ccccc2[S+](=O)([O-])C(C)C)n1 | 73.5
CCCCc1ccc2[nH]c(NC(=O)OC)nc2c1 | 112

SMILES | viability
OC(c1cc(C(F)(F)F)nc2c(C(F)(F)F)cccc12)C1CCCCN1 (stereo unspecified) | 97.9
CN(C1CCc2c(c3ccccc3n2CC(=O)O)C1)[S+](=O)([O-])c1ccc(F)cc1 (stereo unspecified) | 114
NC(=O)c1ccc(-c2nc(-c3ccc4c(c3)OCO4)c(-c3ccccn3)[nH]2)cc1 | 126
Cc1ccc2c(c1)c1c(n2CCc2ccc(C)nc2)CCN(C)C1 | 108
CSC1=CC(=CC=C1)NC2=NC3=C(C=N2)/C=C(C(=O)N3C)/C4=C(Cl)C=CC=C4Cl | 107
C[C@]12CCC\3=C\4CCC(=O)\C=C4CC[C@H]3[C@@H]1CC[C@@]2(O)CC#N | 122
Cc1c(C(=O)Nc2ccc(N3C[C@@H](C)O[C@@H](C)C3)nc2)cccc1-c1ccc(OC(F)(F)F)cc1 | 109
COc1cc(Oc2ccnc3cc(OC)c(OC)cc23)ccc1NC(=O)NC(C)c1nccs1 (stereo unspecified) | 110
C[C@]12COC(=O)C[C@@H]1CC[C@@H]1[C@@H]2CC[C@@]2(C)[C@H]1CC[C@]2(C)O | 108
CCCCCNC(=O)N1CCC(CN(Cc2ccc(Cl)cc2)Cc2ccc([N+](=O)[O-])s2)C1 (stereo unspecified) | 83.4
Nc1ccc([S+](=O)([O-])Nc2ccccn2)cc1 | 115
C[C@]1(c2nc3c(C(N)=O)cccc3[nH]2)CCCN1 | 72.9
OC1=CC2=C(C(=C1)O)C(=O)\C=C(/O2)C3=CC=CC=C3 | 126
COc1cc2c(Nc3ccc(Br)cc3F)ncnc2cc1OCC1CCN(C)CC1 | 52.2
CC[C@H]1CN2CCc3cc(OC)c(OC)cc3[C@@H]2C[C@@H]1C[C@H]1NCCc2cc(OC)c(OC)cc21 | 79.9
CC(C)=CCC/C(C)=C/CC/C(C)=C/CSc1ccccc1C(=O)O | 72
CC(C)(C)c1nc(-c2cccc(N[S+](=O)([O-])c3c(F)cccc3F)c2F)c(-c2ccnc(N)n2)s1 | 109
N#CC1(c2cccc(C(=O)Nc3cc(Oc4ccc5nc(NC(=O)C6CC6)sc5n4)ccc3F)c2Cl)CC1 | 71.8
CCCCCNC(=N)N/N=C/c1c[nH]c2ccc(OC)cc12 | 69.6
CN1CCN(CC1)C2=C3OCN(C)N4\C=C(C(O)=O)/C(=O)C(=C34)C=C2F | 123
COC(=O)c1ccc2c(c1)NC(=O)/C2=C(\Nc1ccc(N(C)C(=O)CN2CCN(C)CC2)cc1)c1ccccc1 | 112

SMILES | viability
CCCCC(=O)O[C@]1(C(=O)CO)[C@H](C)C[C@H]2[C@@H]3CCC4=CC(=O)C=C[C@]4(C)[C@@]3(F)[C@@H](O)C[C@@]21C | 121
C[C@@H](Oc1cc(-n2cnc3ccc(CN4CCN(C)CC4)cc32)sc1C(N)=O)c1ccccc1C(F)(F)F | 47.4
O=C(O)/C=C/c1ccc(Cn2ccnc2)cc1 | 124
CN(C)C(=O)c1ccc([S+](=O)([O-])c2ccc(NC(=O)[C@@](C)(O)C(F)(F)F)c(Cl)c2)cc1 | 113
CC[C@H](C)[N]1C=C(C)C2=C1C=C(C=C2C(=O)NC\C3=C(C)\C=C(\C)NC3=O)C4=CC=C(N=C4)N5CCNCC5 | 141
C[C@@H]1CCN(C(=O)CC#N)C[C@@H]1N(C)c1ncnc2[nH]ccc12 | 79.1
CCCCCCCCCCCCCCCC(=O)O[C@@H]1[C@@H](O)[C@@H](O)[C@@H]([C@H](NC(=O)[C@@H]2C[C@@H](CCC)CN2C)[C@H](C)Cl)O[C@@H]1SC.Cl | 116
NC/1=N/[C@]2(COC[C@H]2CS1)C3=CC(=CC=C3F)NC(=O)C4=NC=C(F)C=C4 | 117
CC(C)C[C@@H](N)[C@H](O)C(=O)N[C@H](C(=O)N[C@H](C(=O)N[C@@H](CC(=O)O)C(=O)O)C(C)C)C(C)C | 85.7
CC1=C(C=CC=C1)N2\C(=N/C3=C(C(=CC=C3)C)C2=O)C[N]4N=CC5=C4N=CN=C5N | 85.3
COc1nc(N)nc2c1ncn2[C@@H]1O[C@H](CO)[C@@H](O)[C@@H]1O | 120
CNC(=O)[C@H](CC/1=C/N=C\2/C=C\C\C=C12)NC(=O)[C@H](CC(C)C)CC(=O)NO | 66.4
Cc1cnc(Nc2ccc(OCCN3CCCC3)cc2)nc1Nc1cccc([S+](=O)([O-])NC(C)(C)C)c1 | 141
CCOC(=O)c1ccc(C#Cc2ccc3c(c2)C(C)(C)CCS3)nc1 | 118
O=C1N(c2ccccc2)c2ccccc2C1(Cc1ccncc1)Cc1ccncc1 | 108
NC1(c2ccc(-c3nc4ccn5c(=O)[nH]nc5c4cc3-c3ccccc3)cc2)CCC1 | 90.4
C[C@@H]1[C@H]\2[C@H](O)[C@H]3[C@H](N(C)C)\C(=C(C(N)=O)/C(=O)[C@@]3(O)\C(=C2C(=O)C4=C(O)C=CC=C14)O)O | 98.3
O=C(/C=C/C=C/c1ccc2c(c1)OCO2)N1CCCCC1 | 114
CC(C)c1ccc2c(c1)c(SC(C)(C)C)c(CC(C)(C)C(=O)[O-])n2Cc1ccc(Cl)cc1 | 115

Same assay, conditions: library / dose series: MIPE library, 11-point 1:3 dilution; top concentration 92.2 µM; 48 h

SMILES | viability
Cc1cn([C@H]2C=C[C@@H](CO)O2)c(=O)[nH]c1=O | 92.2
O=C(/C=C/c1cccc([S+](=O)([O-])Nc2ccccc2)c1)NO | 87.7
C=C1CCC2[C@](C)(CO)C(O)CC[C@]2(C)C1C/C=C1/C(=O)OCC1O (stereo partly specified) | 106
COC1=CC=CC=C1C2=CC=CC(=C2)C/3=C(O)/C4=CC(=C(Cl)C=C4NC3=O)C#N | 142
